Measured values reported in patent US9765056B2, “Indole and pyrrole compounds, a process for their preparation and pharmaceutical compositions containing them” (LES LABORATOIRES SERVIER, priority 2013, dated 2017).
Where a name gives a salt, the structure may show the parent alone.

Legend:
[1] = test system: RS4;11 leukaemia tumour line; experiment: In vitro cytotoxicity, Microculture Tetrazolium Assay (MTT); format: cell-based; settings: Homo sapiens; RS4;11 cells, 48 hours exposure
Method: The cytotoxicity studies were carried out on the RS4;11 leukaemia tumour line.
The cells are distributed onto microplates and exposed to the test compounds for 48 hours. The cell viability is then quantified by a colorimetric assay, the Microculture Tetrazolium Assay (Cancer Res., 1987, 47, 939-942).

Bcl-2 protein = Bcl-2 protein (histag-Bcl-2, UniProtKB P10415) (Homo sapiens (Human), UniProt P10415); experiment: Inhibition of Bcl-2 by the fluorescence polarisation technique; format: binding; settings: fluorescence polarisation test; method A, or method B where underlined (underlining not visible); read-out: IC50 (nM) Bcl-2 FP
Sequence of Bcl-2 protein (P10415 whole entry): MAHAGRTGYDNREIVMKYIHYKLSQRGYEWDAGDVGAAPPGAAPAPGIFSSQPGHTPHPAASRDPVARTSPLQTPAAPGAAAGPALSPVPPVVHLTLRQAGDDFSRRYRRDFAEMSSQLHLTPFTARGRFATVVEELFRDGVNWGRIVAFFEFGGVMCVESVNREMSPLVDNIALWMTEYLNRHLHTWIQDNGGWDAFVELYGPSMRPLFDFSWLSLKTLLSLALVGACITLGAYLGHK
Text: Inhibition of Bcl-2 by the fluorescence polarisation technique

IC50 (Bcl-2 protein) [nM]	Compound	IC50 [1] [nM]
17.5	CN1CCN(C[C@@H]2Cc3ccccc3CN2C(=O)c2ccc(Cl)cc2-n2cc(C(=O)N(c3ccccc3)c3ccccc3)c3ccccc32)CC1 [Example 178, 1-{5-Chloro-2-[(3S)-3-[(4-methylpiperazin-1-yl)methyl]-1,2,3,4-tetrahydroisoquinoline-2-carbonyl]phenyl}-N,N-diphenyl-1H-indole-3-carboxamide dihydrochloride]	812
18.8	Cc1cc(C(=O)N(c2ccc(O)cc2)c2ccc3[nH]ccc3c2)cn1-c1cc(Br)ccc1C(=O)N1Cc2ccccc2C[C@H]1CN1CCCC1 [Example 104, 1-(5-Bromo-2-{[(3S)-3-(pyrrolidin-1-ylmethyl)-3,4-dihydroisoquinolin-2(1H)-yl]carbonyl}phenyl)-N-(4-hydroxyphenyl)-N-(1H-indol-5-yl)-5-methyl-1H-pyrrole-3-carboxamide]	383
18.8	CN1CCN(C[C@@H]2Cc3ccccc3CN2C(=O)c2cc3c(cc2-n2cc(C(=O)N(c4ccccc4)c4ccccc4)c4ccccc42)OCO3)CC1 [Example 177, 1-{6-[(3S)-3-[(4-Methylpiperazin-1-yl)methyl]-1,2,3,4-tetrahydroisoquinoline-2-carbonyl]-2H-1,3-benzodioxol-5-yl}-N,N-diphenyl-1H-indole-3-carboxamide dihydrochloride]	568
4.4	Cc1cc(C(=O)N(c2ccc(O)cc2)c2ccc3c(ccn3C)c2)cn1-c1cc2c(cc1C(=O)N1Cc3ccccc3C[C@H]1CN1CCOCC1)OCO2 [Example 109, N-(4-Hydroxyphenyl)-5-methyl-N-(1-methyl-1H-indol-5-yl)-1-(6-{[(3S)-3-(morpholin-4-ylmethyl)-3,4-dihydroisoquinolin-2(1H)-yl]carbonyl}-1,3-benzodioxol-5-yl)-1H-pyrrole-3-carboxamide hydrochloride]	116
10.5	CN1CCN(C[C@@H]2Cc3ccccc3CN2C(=O)c2ccc(Br)cc2-n2cc(C(=O)N(c3ccc(O)cc3)c3ccc4[nH]ccc4c3)c3ccccc32)CC1 [Example 48, 1-(5-Bromo-2-{[(3S)-3-[(4-methylpiperazin-1-yl)methyl]-3,4-dihydroisoquinolin-2(1H)-yl]carbonyl}phenyl)-N-(4-hydroxyphenyl)-N-(1H-indol-5-yl)-1H-indole-3-carboxamide]	93.9
11.4	Cc1cc(C(=O)N(c2ccccc2)c2ccc(O)cc2)cn1-c1cc(O)ccc1C(=O)N1Cc2ccccc2C[C@H]1CN1CCN(C)CC1 [Example 17, 1-(5-Hydroxy-2-{[(3S)-3-[(4-methylpiperazin-1-yl)methyl]-3,4-dihydroisoquinolin-2(1H)-yl]carbonyl}phenyl)-N-(4-hydroxyphenyl)-5-methyl-N-phenyl-1H-pyrrole-3-carboxamide]	1010
8.3	CN1CCN(C[C@@H]2Cc3ccccc3CN2C(=O)c2ccc(Br)cc2-n2cc(C(=O)N(c3ccc(O)cc3)c3ccc(F)cc3)c3ccccc32)CC1 [Example 71, 1-(5-Bromo-2-{[(3S)-3-[(4-methylpiperazin-1-yl)methyl]-3,4-dihydroisoquinolin-2(1H)-yl]carbonyl}phenyl)-N-(4-fluorophenyl)-N-(4-hydroxyphenyl)-1H-indole-3-carboxamide]	196
17.4	Cc1cc(C(=O)N(c2ccc(O)cc2)c2ccc3c(c2)CCN3)cn1-c1cc2c(cc1C(=O)N1Cc3ccccc3C[C@H]1CN1CCN(C)CC1)OCO2 [Example 103, N-(2,3-Dihydro-1H-indol-5-yl)-N-(4-hydroxyphenyl)-5-methyl-1-(6-{[(3S)-3-[(4-methylpiperazin-1-yl)methyl]-3,4-dihydroisoquinolin-2(1H)-yl]carbonyl}-1,3-benzodioxol-5-yl)-1H-pyrrole-3-carboxamide hydrochloride]	523
35.5	Cc1cc(C(=O)N(c2ccccc2)c2ccc(O)cc2)cn1-c1cc2c(cc1C(=O)N1Cc3ccccc3C[C@H]1CN1CCOCC1)OCO2 [Example 108, N-(4-Hydroxyphenyl)-5-methyl-1-(6-{[(3S)-3-(morpholin-4-ylmethyl)-3,4-dihydroisoquinolin-2(1H)-yl]carbonyl}-1,3-benzodioxol-5-yl)-N-phenyl-1H-pyrrole-3-carboxamide hydrochloride]	544
9.6	Cc1cc(C(=O)N(c2ccc(O)cc2)c2ccc3[nH]ccc3c2)cn1-c1cc(Cl)cc(Cl)c1C(=O)N1Cc2ccccc2C[C@H]1CN1CCN(C)CC1 [Example 92, 1-(3,5-Dichloro-2-{[(3S)-3-[(4-methylpiperazin-1-yl)methyl]-3,4-dihydroisoquinolin-2(1H)-yl]carbonyl}phenyl)-N-(4-hydroxyphenyl)-N-(1H-indol-5-yl)-5-methyl-1H-pyrrole-3-carboxamide]	202
108	COc1ccc(C(=O)N2Cc3ccccc3C[C@H]2CN2CCCCC2)c(-n2cc(C(=O)N(c3ccccc3)c3ccc(O)cc3)c3ccccc32)c1 [Example 169, N-(4-Hydroxyphenyl)-1-{5-methoxy-2-[(3S)-3-(piperidin-1-ylmethyl)-1,2,3,4-tetrahydroisoquinoline-2-carbonyl]phenyl}-N-phenyl-1H-indole-3-carboxamide hydrochloride]	854
11.8	Cc1cc(C(=O)N(c2ccc(O)cc2)c2cccc(N3CCN(C)CC3)c2)cn1-c1cc2c(cc1C(=O)N1Cc3ccccc3C[C@H]1C)OCO2 [Example 112, N-(4-Hydroxyphenyl)-5-methyl-1-(6-{[(3R)-3-methyl-3,4-dihydroisoquinolin-2(1H)-yl]carbonyl}-1,3-benzodioxol-5-yl)-N-[3-(4-methylpiperazin-1-yl)phenyl]-1H-pyrrole-3-carboxamide hydrochloride]	281
448	CCCCN(CCCC)C(=O)c1nn(-c2ccccc2C(=O)N2Cc3ccccc3C[C@H]2CN)c2ccccc12 [Example 121, 1-{2-[(3S)-3-(Aminomethyl)-1,2,3,4-tetrahydroisoquinoline-2-carbonyl]-phenyl}-N,N-dibutyl-1H-indazole-3-carboxamide]	8770
12.2	COc1cc(-n2cc(C(=O)N(c3ccccc3)c3ccc(O)cc3)c3ccccc32)c(C(=O)N2Cc3ccccc3C[C@H]2CN)cc1O [Example 145, 1-{2-[(3S)-3-(Aminomethyl)-1,2,3,4-tetrahydroisoquinoline-2-carbonyl]-4-hydroxy-5-methoxyphenyl}-N-(4-hydroxyphenyl)-N-phenyl-1H-indole-3-carboxamide]	1180
6.2	COc1cc(-n2cc(C(=O)N(c3ccccc3)c3ccc(O)cc3)c3ccccc32)c(C(=O)N2Cc3ccccc3C[C@H]2CN2CCCCC2)cc1O [Example 176, 1-{4-Hydroxy-5-methoxy-2-[(3S)-3-(piperidin-1-ylmethyl)-1,2,3,4-tetrahydroisoquinoline-2-carbonyl]phenyl}-N-(4-hydroxyphenyl)-N-phenyl-1H-indole-3-carboxamide hydrochloride]	225
4.4	COc1cc(-n2cc(C(=O)N(c3ccc(O)cc3)c3ccc4[nH]ccc4c3)c3ccccc32)c(C(=O)N2Cc3ccccc3C[C@H]2CN2CCN(C)CC2)cc1O [Example 202, 1-{4-Hydroxy-5-methoxy-2-[(3S)-3-[(4-methylpiperazin-1-yl)methyl]-1,2,3,4-tetrahydroisoquinoline-2-carbonyl]phenyl}-N-(4-hydroxyphenyl)-N-(1H-indol-5-yl)-1H-indole-3-carboxamide]	798
26.1	Cc1cc(C(=O)N(c2ccc(O)cc2)c2ccc3[nH]ccc3c2)cn1-c1ccccc1C(=O)N1Cc2ccccc2C[C@H]1CN(C)C [Example 23, 1-(2-{[(3S)-3-[(Dimethylamino)methyl]-3,4-dihydroisoquinolin-2(1H)-yl]carbonyl}phenyl)-N-(4-hydroxyphenyl)-N-(1H-indol-5-yl)-5-methyl-1H-pyrrole-3-carboxamide]	445
12.5	CN1CCN(C[C@@H]2Cc3ccccc3CN2C(=O)c2cc3c(cc2-n2cc(C(=O)N(c4ccc(O)cc4)c4cccc(Oc5ccccc5)c4)c4ccccc42)OCO3)CC1 [Example 39, N-(4-Hydroxyphenyl)-1-(6-{[(3S)-3-[(4-methylpiperazin-1-yl)methyl]-3,4-dihydroisoquinolin-2(1H)-yl]carbonyl}-1,3-benzodioxol-5-yl)-N-(3-phenoxyphenyl)-1H-indole-3-carboxamide hydrochloride]	263
20.5	CN1CCN(C[C@@H]2Cc3ccccc3CN2C(=O)c2cc3c(cc2-n2cc(C(=O)N(c4ccc(O)cc4)c4ccc(F)c(Cl)c4)c4ccccc42)OCO3)CC1 [Example 58, N-(3-Chloro-4-fluorophenyl)-N-(4-hydroxyphenyl)-1-(6-{[(3S)-3-[(4-methylpiperazin-1-yl)methyl]-3,4-dihydroisoquinolin-2(1H)-yl]carbonyl}-1,3-benzodioxol-5-yl)-1H-indole-3-carboxamide hydrochloride]	190
17.6	CN1CCN(C[C@@H]2Cc3ccccc3CN2C(=O)c2cc3c(cc2-n2cc(C(=O)N(c4ccc(O)c(Cl)c4)c4ccc5[nH]ccc5c4)c4ccccc42)OCO3)CC1 [Example 82, N-(3-Chloro-4-hydroxyphenyl)-N-(1H-indol-5-yl)-1-(6-{[(3S)-3-[(4-methylpiperazin-1-yl)methyl]-3,4-dihydroisoquinolin-2(1H)-yl]carbonyl}-1,3-benzodioxol-5-yl)-1H-indole-3-carboxamide hydrochloride]	373
18.1	CN(C)C[C@@H]1Cc2ccccc2CN1C(=O)c1ccc(Cl)cc1-n1cc(C(=O)N(c2ccccc2)c2ccc(O)cc2)c2ccccc21 [Example 179, 1-{5-Chloro-2-[(3S)-3-[(dimethylamino)methyl]-1,2,3,4-tetrahydroisoquinoline-2-carbonyl]phenyl}-N-(4-hydroxyphenyl)-N-phenyl-1H-indole-3-carboxamide hydrochloride]	886
